Experimental data published in the NIST ThermoML archive (doi:10.1021/je8009545).

Assay: xn = mol fraction of the nth substance listed
Conditions: Gas; for mass density: Gas pipette; for viscosity: Oscillating disk viscometry

COC [dimethyl ether] + N#N
Conditions | mass density [kg/m3] | viscosity [mPa·s]
298.15 K, 101 kPa, x1 = 0.256 | 1.178 | 0.01483
298.15 K, 101 kPa, x1 = 0.449 | 1.433 | 0.013
298.15 K, 101 kPa, x1 = 0.752 | 1.783 | 0.01063
298.15 K, 101 kPa, x1 = 1 | 1.91 | 0.00922
298.15 K, 262 kPa, x1 = 0.752 | 4.839 | 0.0106
298.15 K, 264 kPa, x1 = 0.449 | 4.075 | 0.013
298.15 K, 296 kPa, x1 = 1 | 6.081 | 0.00918
298.15 K, 305 kPa, x1 = 0.256 | 4.298 | 0.01488
298.15 K, 475 kPa, x1 = 1 | 10.06 | 0.0091
298.15 K, 614 kPa, x1 = 0.752 | 11.78 | 0.0106
298.15 K, 640 kPa, x1 = 0.449 | 9.965 | 0.01303
298.15 K, 683 kPa, x1 = 0.256 | 9.296 | 0.01494
323.15 K, 101 kPa, x1 = 0.228 | 1.08 | 0.01629
323.15 K, 101 kPa, x1 = 0.449 | 1.144 | 0.01402
323.15 K, 101 kPa, x1 = 0.698 | 1.303 | 0.012
323.15 K, 101 kPa, x1 = 1 | 1.652 | 0.00997
323.15 K, 270 kPa, x1 = 0.698 | 4.353 | 0.01201
323.15 K, 295 kPa, x1 = 1 | 5.561 | 0.00996
323.15 K, 321 kPa, x1 = 0.449 | 4.449 | 0.01406
323.15 K, 354 kPa, x1 = 0.228 | 4.544 | 0.01632
323.15 K, 485 kPa, x1 = 0.698 | 7.499 | 0.01201
323.15 K, 486 kPa, x1 = 0.449 | 6.864 | 0.01408
323.15 K, 490 kPa, x1 = 1 | 9.31 | 0.00993
323.15 K, 553 kPa, x1 = 0.228 | 6.768 | 0.01636
323.15 K, 695 kPa, x1 = 0.698 | 11.57 | 0.01206
323.15 K, 714 kPa, x1 = 0.449 | 10.2 | 0.01408
323.15 K, 736 kPa, x1 = 1 | 14.71 | 0.00995
323.15 K, 910 kPa, x1 = 0.228 | 11.15 | 0.01636
323.15 K, 946 kPa, x1 = 0.698 | 15.73 | 0.01208
323.15 K, 976 kPa, x1 = 1 | 22.53 | 0.00994
323.15 K, 990 kPa, x1 = 0.449 | 13.89 | 0.01413
348.15 K, 101 kPa, x1 = 0.313 | 1.11 | 0.01638
348.15 K, 101 kPa, x1 = 0.491 | 1.237 | 0.01463
348.15 K, 101 kPa, x1 = 0.661 | 1.332 | 0.01319
348.15 K, 101 kPa, x1 = 1 | 1.332 | 0.01081
348.15 K, 294 kPa, x1 = 0.313 | 3.552 | 0.01639
348.15 K, 305 kPa, x1 = 1 | 5.17 | 0.01081
348.15 K, 306 kPa, x1 = 0.661 | 4.345 | 0.01319
348.15 K, 325 kPa, x1 = 0.491 | 4.155 | 0.01468
348.15 K, 519 kPa, x1 = 0.661 | 7.453 | 0.01321
348.15 K, 520 kPa, x1 = 0.313 | 6.153 | 0.01644
348.15 K, 525 kPa, x1 = 0.491 | 6.977 | 0.01471
348.15 K, 551 kPa, x1 = 1 | 9.705 | 0.01082
348.15 K, 992 kPa, x1 = 0.661 | 14.43 | 0.01327
348.15 K, 998 kPa, x1 = 0.313 | 11.96 | 0.0165
348.15 K, 1006 kPa, x1 = 1 | 19.03 | 0.01085
348.15 K, 1021 kPa, x1 = 0.491 | 13.54 | 0.01476
348.15 K, 1561 kPa, x1 = 1 | 35.81 | 0.01094
348.15 K, 1850 kPa, x1 = 1 | 44.66 | 0.01106
348.15 K, 1909 kPa, x1 = 0.491 | 26.07 | 0.01499
348.15 K, 2053 kPa, x1 = 0.661 | 33.49 | 0.01353
348.15 K, 2095 kPa, x1 = 0.313 | 25.47 | 0.01672
373.15 K, 101 kPa, x1 = 0.281 | 0.665 | 0.01773
373.15 K, 101 kPa, x1 = 0.522 | 0.95 | 0.01534
373.15 K, 101 kPa, x1 = 0.82 | 1.171 | 0.01282
373.15 K, 101 kPa, x1 = 1 | 1.235 | 0.01161
373.15 K, 301 kPa, x1 = 0.522 | 3.577 | 0.01535
373.15 K, 305 kPa, x1 = 1 | 4.748 | 0.0116
373.15 K, 312 kPa, x1 = 0.82 | 4.4 | 0.01285
373.15 K, 325 kPa, x1 = 0.281 | 3.419 | 0.01777
373.15 K, 500 kPa, x1 = 1 | 7.787 | 0.01162
373.15 K, 516 kPa, x1 = 0.82 | 7.217 | 0.01285
373.15 K, 520 kPa, x1 = 0.281 | 5.508 | 0.01777
373.15 K, 530 kPa, x1 = 0.522 | 6.584 | 0.01539
373.15 K, 1011 kPa, x1 = 0.281 | 10.64 | 0.01784
373.15 K, 1028 kPa, x1 = 1 | 16.71 | 0.01168
373.15 K, 1029 kPa, x1 = 0.522 | 12.76 | 0.0155
373.15 K, 1038 kPa, x1 = 0.82 | 15.16 | 0.01295
373.15 K, 1915 kPa, x1 = 0.281 | 20.8 | 0.01801
373.15 K, 1940 kPa, x1 = 1 | 35.33 | 0.01191
373.15 K, 1952 kPa, x1 = 0.82 | 30.93 | 0.01314
373.15 K, 2036 kPa, x1 = 0.522 | 25.83 | 0.01568
373.15 K, 2505 kPa, x1 = 1 | 51.25 | 0.01219
373.15 K, 2875 kPa, x1 = 1 | 67.49 | 0.01247
373.15 K, 2895 kPa, x1 = 0.82 | 51.12 | 0.01352
373.15 K, 3005 kPa, x1 = 0.281 | 33.02 | 0.01823
373.15 K, 3049 kPa, x1 = 1 | 74.07 | 0.01261
373.15 K, 3065 kPa, x1 = 0.522 | 40.84 | 0.01599
398.15 K, 101 kPa, x1 = 0.246 | 0.853 | 0.01917
398.15 K, 101 kPa, x1 = 0.525 | 0.885 | 0.01617
398.15 K, 101 kPa, x1 = 0.78 | 0.727 | 0.01397
398.15 K, 101 kPa, x1 = 1 | 0.948 | 0.01234
398.15 K, 300 kPa, x1 = 1 | 4.392 | 0.01237
398.15 K, 310 kPa, x1 = 0.246 | 2.938 | 0.01921
398.15 K, 315 kPa, x1 = 0.78 | 4.107 | 0.01399
398.15 K, 317 kPa, x1 = 0.525 | 3.633 | 0.01622
398.15 K, 516 kPa, x1 = 0.525 | 5.877 | 0.01623
398.15 K, 519 kPa, x1 = 0.246 | 5.15 | 0.01919
398.15 K, 531 kPa, x1 = 1 | 7.678 | 0.01239
398.15 K, 533 kPa, x1 = 0.78 | 7.077 | 0.01401
398.15 K, 992 kPa, x1 = 1 | 15.1 | 0.01244
398.15 K, 1009 kPa, x1 = 0.78 | 13.52 | 0.0141
398.15 K, 1020 kPa, x1 = 0.525 | 11.91 | 0.01629
398.15 K, 1048 kPa, x1 = 0.246 | 10.02 | 0.01926
398.15 K, 2018 kPa, x1 = 0.525 | 23.95 | 0.01651
398.15 K, 2030 kPa, x1 = 0.246 | 19.75 | 0.01943
398.15 K, 2030 kPa, x1 = 0.78 | 28.37 | 0.01433
398.15 K, 2085 kPa, x1 = 1 | 34.47 | 0.01274
398.15 K, 2973 kPa, x1 = 0.246 | 29.35 | 0.0196
398.15 K, 2985 kPa, x1 = 1 | 54.66 | 0.01317
398.15 K, 2986 kPa, x1 = 0.78 | 44.58 | 0.01465
398.15 K, 3015 kPa, x1 = 0.525 | 36.43 | 0.01675
398.15 K, 3735 kPa, x1 = 0.78 | 58.58 | 0.015
398.15 K, 3839 kPa, x1 = 0.246 | 37.95 | 0.01974
398.15 K, 3905 kPa, x1 = 0.525 | 47.93 | 0.01701
398.15 K, 3965 kPa, x1 = 1 | 87.68 | 0.0141
398.15 K, 4480 kPa, x1 = 1 | 112.3 | 0.01504
398.15 K, 4569 kPa, x1 = 0.78 | 77.25 | 0.0155
398.15 K, 4620 kPa, x1 = 1 | 122.4 | 0.01543
398.15 K, 4730 kPa, x1 = 0.525 | 59.49 | 0.01731
398.15 K, 4860 kPa, x1 = 0.246 | 48.5 | 0.01995
423.15 K, 101 kPa, x1 = 0.272 | 0.662 | 0.01978
423.15 K, 101 kPa, x1 = 0.527 | 0.694 | 0.01721
423.15 K, 101 kPa, x1 = 0.764 | 1.072 | 0.01516
423.15 K, 101 kPa, x1 = 1 | 1.009 | 0.01332
423.15 K, 310 kPa, x1 = 1 | 4.289 | 0.01333
423.15 K, 314 kPa, x1 = 0.272 | 2.901 | 0.01984
423.15 K, 316 kPa, x1 = 0.527 | 3.343 | 0.01723
423.15 K, 320 kPa, x1 = 0.764 | 4.447 | 0.01522
423.15 K, 505 kPa, x1 = 0.527 | 5.456 | 0.01726
423.15 K, 505 kPa, x1 = 1 | 6.812 | 0.01335
423.15 K, 520 kPa, x1 = 0.764 | 6.591 | 0.01524
423.15 K, 529 kPa, x1 = 0.272 | 4.699 | 0.01986
423.15 K, 985 kPa, x1 = 1 | 13.75 | 0.01342
423.15 K, 1021 kPa, x1 = 0.764 | 12.33 | 0.0153
423.15 K, 1040 kPa, x1 = 0.272 | 9.555 | 0.01994
423.15 K, 1047 kPa, x1 = 0.527 | 11.35 | 0.01734
423.15 K, 2013 kPa, x1 = 0.527 | 22.17 | 0.01753
423.15 K, 2022 kPa, x1 = 1 | 30.21 | 0.0137
423.15 K, 2030 kPa, x1 = 0.272 | 18.92 | 0.02008
423.15 K, 2060 kPa, x1 = 0.764 | 25.8 | 0.01558
423.15 K, 2926 kPa, x1 = 0.764 | 38.25 | 0.01581
423.15 K, 2955 kPa, x1 = 0.272 | 27.91 | 0.02018
423.15 K, 2995 kPa, x1 = 0.527 | 33.84 | 0.01769
423.15 K, 3004 kPa, x1 = 1 | 48.47 | 0.01413
423.15 K, 3970 kPa, x1 = 0.764 | 54.49 | 0.01621
423.15 K, 3973 kPa, x1 = 0.527 | 45.63 | 0.01796
423.15 K, 4000 kPa, x1 = 0.272 | 37.87 | 0.02038
423.15 K, 4015 kPa, x1 = 1 | 71.3 | 0.01477
423.15 K, 4495 kPa, x1 = 1 | 86.57 | 0.01521
423.15 K, 4873 kPa, x1 = 0.527 | 56.58 | 0.01822
423.15 K, 4894 kPa, x1 = 0.764 | 69.38 | 0.01664
423.15 K, 4911 kPa, x1 = 0.272 | 46.7 | 0.02057
423.15 K, 4912 kPa, x1 = 1 | 99.15 | 0.01568
